system: G3BP1 NFT2; type: binding, human; settings: library DMS-BM; bait G3BP1 NFT2; prey CAPRIN1; AQMQGPYNFIQDSM(averaged): mean of the two overlapping peptides over the shared positions

Substance	DMS position-specific score (PSSM value) per amino-acid substitution, averaged
AQMQGPYNFIQDSM(averaged) D12V (AQMQGPYNFIQVSM)	0.005056
AQMQGPYNFIQDSM(averaged) M3I (AQIQGPYNFIQDSM)	0.03359
AQMQGPYNFIQDSM(averaged) A1W (WQMQGPYNFIQDSM)	0.05589
AQMQGPYNFIQDSM(averaged) M3A (AQAQGPYNFIQDSM)	0.007318
AQMQGPYNFIQDSM(averaged) F9H (AQMQGPYNHIQDSM)	0
AQMQGPYNFIQDSM(averaged) P6T (AQMQGTYNFIQDSM)	0.1796
AQMQGPYNFIQDSM(averaged) P6N (AQMQGNYNFIQDSM)	0.03046
AQMQGPYNFIQDSM(averaged) S13R (AQMQGPYNFIQDRM)	0.001343
AQMQGPYNFIQDSM(averaged) M3D (AQDQGPYNFIQDSM)	0.0976
AQMQGPYNFIQDSM(averaged) M3L (AQLQGPYNFIQDSM)	0.03704
AQMQGPYNFIQDSM(averaged) S13F (AQMQGPYNFIQDFM)	0.05713
AQMQGPYNFIQDSM(averaged) D12G (AQMQGPYNFIQGSM)	0.006593
AQMQGPYNFIQDSM(averaged) F9F	0.9484
AQMQGPYNFIQDSM(averaged) I10T (AQMQGPYNFTQDSM)	0.01974
AQMQGPYNFIQDSM(averaged) M3M	0.1084
AQMQGPYNFIQDSM(averaged) Q11W (AQMQGPYNFIWDSM)	0.01601
AQMQGPYNFIQDSM(averaged) Q11Y (AQMQGPYNFIYDSM)	0.0642
AQMQGPYNFIQDSM(averaged) M14Y (AQMQGPYNFIQDSY)	0.01132
AQMQGPYNFIQDSM(averaged) A1H (HQMQGPYNFIQDSM)	0.006137
AQMQGPYNFIQDSM(averaged) Q2R (ARMQGPYNFIQDSM)	0.001052
AQMQGPYNFIQDSM(averaged) N8V (AQMQGPYVFIQDSM)	0.1991
AQMQGPYNFIQDSM(averaged) M3W (AQWQGPYNFIQDSM)	0.07564
AQMQGPYNFIQDSM(averaged) Q2G (AGMQGPYNFIQDSM)	0.001251
AQMQGPYNFIQDSM(averaged) Y7K (AQMQGPKNFIQDSM)	0
AQMQGPYNFIQDSM(averaged) F9I (AQMQGPYNIIQDSM)	0
AQMQGPYNFIQDSM(averaged) S13K (AQMQGPYNFIQDKM)	0
AQMQGPYNFIQDSM(averaged) Q4V (AQMVGPYNFIQDSM)	0.1002
AQMQGPYNFIQDSM(averaged) S13G (AQMQGPYNFIQDGM)	0.0006715
AQMQGPYNFIQDSM(averaged) Q11K (AQMQGPYNFIKDSM)	0.0002863

Source: PMC12102759 (Protein Science : A Publication of the Protein Society, 2025)
